In US4138554A, “7-[D-α-(4-Hydroxy-1,5-naphthyridine-3-carboxamido)-α-phenyl (and p-hydroxyphenyl)acetamido]-3-carbamoyloxymethyl-3-cephem-4-carboxylic acids” (priority 1977, dated 1979):
Where two headings read alike, the source gives them in different places.

Experiments:
Pseudomonas sp. = experiment: MIC by serial two-fold agar dilution (Mueller-Hinton agar), Pseudomonas sp.; assay type: cell-based; conditions: Pseudomonas sp. A20358, Table 6
Experimental: Minimum inhibitory concentrations (MIC) of cephalosporins in the present study were determined by serial two-fold agar dilution method using Steers' apparatus on Mueller-Hinton agar plate against 31 test organisms for the primary screening and also against 61 strains of Pseudomonas aeruginosa for the secondary evaluation.

Pseudomonas aeruginosa = experiment: MIC by agar dilution against 61 strains of Pseudomonas aeruginosa, secondary evaluation; assay type: cell-based; conditions: for MIC: Pseudomonas aeruginosa
Procedure, shortened: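 Serial two-fold agar dilution on Mueller-Hinton agar plates, inoculated with a Steers' replicator. Primary screening covered 31 test organisms; secondary evaluation used 61 Pseudomonas aeruginosa strains. MIC taken as the lowest inhibitory concentration.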

Question: Which results are given for `NC(=O)OCC1=C(C(=O)O)N2C(=O)C(NC(=O)[C@H](NC(=O)c3cnc4cccnc4c3O)c3ccc(O)cc3)C2SC1` (single isomer, unassigned) [BB-S530, Sodium 7-[D-(-)-α-(4-hydroxy-1,5-naphthyridine-3-carboxamido)-α-(p-hydroxyphenyl)acetamido]-3-carbamoyloxymethyl-3-cephem-4-carboxylate]?
Answer: MIC (Pseudomonas sp.): 0.4 µg/mL; Rel. Act. (SBPC=100%) (Pseudomonas aeruginosa; 61 strains of Pseudomonas aeruginosa, Table 7): 1694%; Mean % Relative Activity (SPBC = 100%) (Pseudomonas aeruginosa; P. aerug. (61 strains), Table 5): 1694%; MIC (Pseudomonas aeruginosa; 61 strains of Pseudomonas aeruginosa, Table 7, read-out: Geometric Mean of MIC): 1.4 µg/mL; MIC (Pseudomonas aeruginosa; BBRI Pa-No. 1, D15, Table 7, read-out: MIC): 6.3 µg/mL; MIC (Pseudomonas aeruginosa; BBRI Pa-No. 2, VA, Table 7, read-out: MIC): 1.6 µg/mL; MIC (Pseudomonas aeruginosa; BBRI Pa-No. 3, 1449VA, Table 7, read-out: MIC): 0.8 µg/mL; MIC (Pseudomonas aeruginosa; BBRI Pa-No. 4, H9 D113, Table 7, read-out: MIC): 1.6 µg/mL; MIC (Pseudomonas aeruginosa; BBRI Pa-No. 5, N4865KC, Table 7, read-out: MIC): 1.6 µg/mL; MIC (Pseudomonas aeruginosa; BBRI Pa-No. 6, No. 5, Table 7, read-out: MIC): 6.3 µg/mL; MIC (Pseudomonas aeruginosa; BBRI Pa-No. 7, Table 7, read-out: MIC): 1.6 µg/mL; MIC (Pseudomonas aeruginosa; BBRI Pa-No. 8, Table 7, read-out: MIC): 1.6 µg/mL; MIC (Pseudomonas aeruginosa; BBRI Pa-No. 9, Yale, Table 7, read-out: MIC): 1.6 µg/mL; MIC (Pseudomonas aeruginosa; BBRI Pa-No. 10, Table 7, read-out: MIC): 100 µg/mL; MIC (Pseudomonas aeruginosa; BBRI Pa-No. 11, Table 7, read-out: MIC): 1.6 µg/mL; MIC (Pseudomonas aeruginosa; BBRI Pa-No. 12, Table 7, read-out: MIC): 1.6 µg/mL; MIC (Pseudomonas aeruginosa; BBRI Pa-No. 14, Table 7, read-out: MIC): 0.8 µg/mL; MIC (Pseudomonas aeruginosa; BBRI Pa-No. 15, Table 7, read-out: MIC): 3.1 µg/mL; MIC (Pseudomonas aeruginosa; BBRI Pa-No. 16, No. 130, Table 7, read-out: MIC): < 0.2 µg/mL; MIC (Pseudomonas aeruginosa; BBRI Pa-No. 17, H6 D114, Table 7, read-out: MIC): 12.5 µg/mL; MIC (Pseudomonas aeruginosa; BBRI Pa-No. 18, H8 D121, Table 7, read-out: MIC): 0.4 µg/mL; MIC (Pseudomonas aeruginosa; BBRI Pa-No. 19, Table 7, read-out: MIC): 0.4 µg/mL; MIC (Pseudomonas aeruginosa; BBRI Pa-No. 20, Table 7, read-out: MIC): 1.6 µg/mL; MIC (Pseudomonas aeruginosa; BBRI Pa-No. 21, Table 7, read-out: MIC): 1.6 µg/mL; MIC (Pseudomonas aeruginosa; BBRI Pa-No. 23, Table 7, read-out: MIC): 1.6 µg/mL; MIC (Pseudomonas aeruginosa; BBRI Pa-No. 24, Table 7, read-out: MIC): 50 µg/mL; MIC (Pseudomonas aeruginosa; BBRI Pa-No. 25, Table 7, read-out: MIC): 0.8 µg/mL; MIC (Pseudomonas aeruginosa; BBRI Pa-No. 26, Ps32, Table 7, read-out: MIC): 6.3 µg/mL; MIC (Pseudomonas aeruginosa; BBRI Pa-No. 28, CPH1C527/72, Table 7, read-out: MIC): 1.6 µg/mL; MIC (Pseudomonas aeruginosa; BBRI Pa-No. 29, D122, Table 7, read-out: MIC): 0.8 µg/mL; MIC (Pseudomonas aeruginosa; BBRI Pa-No. 30, Table 7, read-out: MIC): 0.8 µg/mL; MIC (Pseudomonas aeruginosa; BBRI Pa-No. 31, Table 7, read-out: MIC): < 0.2 µg/mL; MIC (Pseudomonas aeruginosa; BBRI Pa-No. 32, Table 7, read-out: MIC): 0.8 µg/mL; MIC (Pseudomonas aeruginosa; BBRI Pa-No. 33, Table 7, read-out: MIC): 0.8 µg/mL; MIC (Pseudomonas aeruginosa; BBRI Pa-No. 34, Table 7, read-out: MIC): 0.4 µg/mL; MIC (Pseudomonas aeruginosa; BBRI Pa-No. 35, Table 7, read-out: MIC): 1.6 µg/mL; MIC (Pseudomonas aeruginosa; BBRI Pa-No. 36, Table 7, read-out: MIC): < 0.2 µg/mL; MIC (Pseudomonas aeruginosa; BBRI Pa-No. 37, Table 7, read-out: MIC): 1.6 µg/mL; MIC (Pseudomonas aeruginosa; BBRI Pa-No. 38, Table 7, read-out: MIC): 3.1 µg/mL; MIC (Pseudomonas aeruginosa; BBRI Pa-No. 39, Table 7, read-out: MIC): 0.8 µg/mL; MIC (Pseudomonas aeruginosa; BBRI Pa-No. 41, Table 7, read-out: MIC): 1.6 µg/mL; MIC (Pseudomonas aeruginosa; BBRI Pa-No. 42, Table 7, read-out: MIC): 1.6 µg/mL; MIC (Pseudomonas aeruginosa; BBRI Pa-No. 43, Table 7, read-out: MIC): 1.6 µg/mL; MIC (Pseudomonas aeruginosa; BBRI Pa-No. 44 (unnamed strain), Table 7, read-out: MIC): 1.6 µg/mL; MIC (Pseudomonas aeruginosa; BBRI Pa-No. 51, Table 7, read-out: MIC): 0.8 µg/mL; MIC (Pseudomonas aeruginosa; BBRI Pa-No. 52, Table 7, read-out: MIC): 1.6 µg/mL; MIC (Pseudomonas aeruginosa; BBRI Pa-No. 53, Table 7, read-out: MIC): 0.8 µg/mL; MIC (Pseudomonas aeruginosa; BBRI Pa-No. 54, Table 7, read-out: MIC): 0.8 µg/mL; MIC (Pseudomonas aeruginosa; BBRI Pa-No. 55, Table 7, read-out: MIC): 1.6 µg/mL; MIC (Pseudomonas aeruginosa; BBRI Pa-No. 56, Table 7, read-out: MIC): 1.6 µg/mL; MIC (Pseudomonas aeruginosa; BBRI Pa-No. 57, Table 7, read-out: MIC): 0.8 µg/mL; MIC (Pseudomonas aeruginosa; BBRI Pa-No. 58, Table 7, read-out: MIC): 1.6 µg/mL; MIC (Pseudomonas aeruginosa; BBRI Pa-No. 59, Table 7, read-out: MIC): 0.8 µg/mL; MIC (Pseudomonas aeruginosa; BBRI Pa-No. 60, Table 7, read-out: MIC): 0.8 µg/mL; MIC (Pseudomonas aeruginosa; BBRI Pa-No. 61, Table 7, read-out: MIC): 1.6 µg/mL; MIC (Pseudomonas aeruginosa; BBRI Pa-No. 62, Table 7, read-out: MIC): 100 µg/mL; MIC (Pseudomonas aeruginosa; BBRI Pa-No. 64, Table 7, read-out: MIC): 1.6 µg/mL; MIC (Pseudomonas aeruginosa; BBRI Pa-No. 65, Table 7, read-out: MIC): 1.6 µg/mL; MIC (Pseudomonas aeruginosa; BBRI Pa-No. 66, Table 7, read-out: MIC): 0.8 µg/mL; MIC (Pseudomonas aeruginosa; BBRI Pa-No. 67, Table 7, read-out: MIC): 1.6 µg/mL; MIC (Pseudomonas aeruginosa; BBRI Pa-No. 68, Table 7, read-out: MIC): 1.6 µg/mL; MIC (Pseudomonas aeruginosa; BBRI Pa-No. 69, Table 7, read-out: MIC): 3.1 µg/mL; MIC (Pseudomonas aeruginosa; BBRI Pa-No. 70, K-Ps102(CR-102), Table 7, read-out: MIC): 0.8 µg/mL; MIC (Pseudomonas aeruginosa; GN315, BBRI Pa-No. 27, GN315, Table 7, read-out: MIC): 0.4 µg/mL; MIC (Pseudomonas aeruginosa; GN4925, BBRI Pa-No. 44, GN4925, Table 7, read-out: MIC): 1.6 µg/mL
